Here are results for 22 compounds from US6683077B2, “2-Amino-benzoxazinones for the treatment of viral infections” (G.D. Searle & Co., priority 1996, dated 2004).

The test system of experiment [1] is HCMV engineered virus RC256. Kind of experiment: microbe, parasite or virus in culture. Type of experiment: cell-based, human cytomegalovirus. The conditions noted are these: Human betaherpesvirus 5, Fibroblast, read-out: Antiviral Activity RC256, first value (EC50).
Experiment [2] has as its target T1, Human leukocyte elastase (HLE) (Homo sapiens, UniProt P08246).
T1 construct: gift of R. Senior, Washington University
T1 sequence (P08246 30-267): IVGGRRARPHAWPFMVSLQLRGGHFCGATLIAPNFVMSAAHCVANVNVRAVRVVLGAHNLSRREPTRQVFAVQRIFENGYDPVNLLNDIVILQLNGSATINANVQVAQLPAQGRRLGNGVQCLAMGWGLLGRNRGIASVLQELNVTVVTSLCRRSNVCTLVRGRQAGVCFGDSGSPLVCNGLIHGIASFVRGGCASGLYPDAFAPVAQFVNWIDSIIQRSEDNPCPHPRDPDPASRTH
Put plainly: Human leukocyte elastase assay. The class given is biochemical. The protocol: Human leukocyte elastase (HLE) (gift of R. Senior, Washington University) was dissolved in saline at 1 mg/ml and further diluted 1/20 in assay buffer (0.2 M Tris, pH 8.0) before use. 10 μl of test compound in DMSO (or DMSO alone), 100 μl of assay buffer and 50 μl of enzyme were added to 96 well plates, mixed and pre-incubated for 30 minutes at ambient temperature. Reaction was initiated by addition of 40 μl of 2.5 mM methoxysuccinyl-Ala-Ala-Pro-Val-p-nitroanilide (Sigma; 25 mM in DMSO diluted 1/10 in assay buffer before use). The increase in absorbance at 405 nm was monitored for 10 minutes with a Biotek EL340 plate reader.

The mark [3] stands for this setting: @ 1 (concentration unit not given).
Setting [4] is: @ 100 (concentration unit not given).
Where [5] appears, read: @ 10 (concentration unit not given).

The structures appear in SMILES notation.

In general, EC50 refers to the concentration that produces a half-maximal response. On to `COc1ccc(C[C@H](Nc2nc3ccc(CNC(=O)OCc4ccncc4)c(C)c3c(=O)o2)C(=O)N(C)Cc2ccccc2)cc1` [Example 18d, (4-Pyridinyl)methyl[[2-[[1S-[(4-methoxyphenyl)methyl]-2-[methyl(phenylmethyl)amino]-2-oxoethyl]amino]-5-methyl-4-oxo-3,1-benzoxazin-6-yl]methyl]carbamate], for which the EC50 in experiment [1] came out at 12 µM. For the same compound, in experiment [2] (setting [3]), the “HLE, % @ concentration” value was determined as 55% @ 1. For the compound `Cc1c(NC(=O)OC(C)(C)C)ccc2nc(N[C@@H](Cc3ccc(OCCN4CCCC4)cc3)C(=O)N(C)Cc3ccccc3)oc(=O)c12` [Example 6ff, 1,1-Dimethylethyl[5-methyl-2-[[2-[methyl(phenylmethyl)amino]-2-oxo-1S-[[4-[2-(1-pyrrolidinyl)ethoxy]phenyl]methyl]ethyl]amino]-4-oxo-4H-3,1-benzoxazin-6-yl]carbamate], the EC50 in experiment [1] stood at 50 µM. For the same compound, the “HLE, % @ concentration” value in experiment [2] (setting [4]) is 75% @ 100. As to `Cc1c(CNC(=O)OC(C)(C)C)ccc2nc(N[C@@H](Cc3ccccc3)C(=O)N(C)Cc3ccccc3)oc(=O)c12` [Example 7j, 1,1-Dimethylethyl[[5-methyl-2-[[2-[methyl(phenylmethyl)amino]-2-oxo-1S-(phenylmethyl)ethyl]amino]-4-oxo-4H-3,1-benzoxazin-6-yl]methyl]carbamate], the EC50 in experiment [1] was 14 µM. In addition, in experiment [2] (setting [5]), the “HLE, % @ concentration” value amounted to 31% @ 10. `COc1ccc(C[C@H](Nc2nc3ccc(CNC(=O)Cc4ccc(N(C)C)cc4)c(C)c3c(=O)o2)C(=O)N(C)Cc2ccccc2)cc1` [Example 9o, αS-[[6-[[[[4-(Dimethylamino)phenyl]acetyl]amino]methyl]-5-methyl-4-oxo-4H-3,1-benzoxazin-2-yl]amino]-4-methoxy-N-methyl-N-(phenylmethyl)benzenepropanamide]: in experiment [1], the EC50 amounted to 14 µM. The “HLE, % @ concentration” value in experiment [2] (setting [3]) was found to be 73% @ 1.

In the case of `CCN(Cc1ccccc1)C(=O)[C@H](Cc1ccccc1)Nc1nc2c(Br)cc(CNC(=O)CN3CCOCC3)c(C)c2c(=O)o1` [Example 15g, N-[[8-Bromo-2-[[2-[ethyl(phenylmethyl)amino]-2-oxo-1S-(phenylmethyl)ethyl]amino]-5-methyl-4-oxo-4H-3,1-benzoxazin-6-yl]methyl]morpholine-4-acetamide], in experiment [1], the EC50 turned out to be 16 µM. In addition, in experiment [2] (setting [3]), the “HLE, % @ concentration” value was 22% @ 1. `COc1ccc(C[C@H](Nc2nc3ccc(CNC(=O)NCc4ccccc4)c(C)c3c(=O)o2)C(=O)N(C)Cc2ccccc2)cc1` [Example 12j, 4-Methoxy-N-methyl-αS-[[5-methyl-4-oxo-6-[[[[(phenylmethyl)amino]carbonyl]amino]methyl]-4H-3,1-benzoxazin-2-yl]amino]-N-(phenylmethyl)benzenepropanamide]: in experiment [1], the EC50 was 17 µM. In addition, the “HLE, % @ concentration” value in experiment [2] (setting [3]) is recorded as 63% @ 1. As to `COc1ccc(C[C@H](Nc2nc3ccc(NC(=O)c4ccccn4)c(C)c3c(=O)o2)C(=O)N(C)Cc2ccccc2)cc1` [Example 11p, N-[2-[[1S-[(4-Methoxyphenyl)methyl]-2-[-methyl(phenylmethyl)amino]-2-oxoethyl]amino]-5-methyl-4-oxo-4H-3,1-benzoxazin-6-yl]pyridine-2-carboxamide], the EC50 in experiment [1] came to 8.5 µM. Also, the “HLE, % @ concentration” value in experiment [2] (setting [5]) worked out at 40% @ 10. In the case of `Cc1c(NC(=O)OC(C)(C)C)ccc2nc(N[C@@H](C)C(=O)OC(C)(C)C)oc(=O)c12` [Example 6, N-[6-[[(1,1-Dimethylethoxy]carbonyl]amino]-5-methyl-4-oxo-4H-3,1-benzoxazin-2-yl]-L-alanine, 1,1-dimethylethyl Ester], in experiment [1], the EC50 is more than 100 µM. In experiment [2] (setting [4]), the “HLE, % @ concentration” value worked out at 29% @ 100. `Cc1c(CNC(=O)CN2CCOCC2)cc(Br)c2nc(N[C@@H](Cc3ccccc3)C(=O)N(C)Cc3ccccc3)oc(=O)c12` [Example 15e, N-[[8-Bromo-5-methyl-2-[[2-[methyl(phenylmethyl)amino]-2-oxo-1S-(phenylmethyl)ethyl]amino]-4-oxo-4H-3,1-benzoxazin-6-yl]methyl]morpholine-4-acetamide]: in experiment [1], the concentration giving a half-maximal response (EC50) came to 16 µM. For the same compound, the “HLE, % @ concentration” value in experiment [2] (setting [4]) stood at 78% @ 100.

As to `Cc1c(CNC(=O)OC(C)(C)C)ccc2nc(N[C@@H](Cc3ccc(Cl)cc3)C(=O)N(C)Cc3ccccc3)oc(=O)c12` [Example 7p, 1,1-Dimethylethyl[[2-[[1S-[(4-chlorophenyl)methyl]-2-[methyl(phenylmethyl)amino]-2-oxoethyl]amino]-5-methyl-4-oxo-4H-3,1-benzoxazin-6-yl]methyl]carbamate], the EC50 in experiment [1] is 20 µM. In addition, the “HLE, % @ concentration” value in experiment [2] (setting [3]) is listed as 42% @ 1. On to `Cc1c(CNC(=O)OC(C)(C)C)ccc2nc(N[C@@H](Cc3ccccc3)C(=O)N(C)c3ccccc3)oc(=O)c12` [Example 7m, 1,1-Dimethylethyl([5-methyl-2-[[2-(methylphenylamino)-2-oxo-1S-(phenylmethyl)ethyl]amino]-5-methyl-4-oxo-4H-3,1-benzoxazin-6-yl]methyl]carbamate], for which the concentration giving a half-maximal response (EC50) in experiment [1] was found to be 5.2 µM. Besides, in experiment [2] (setting [5]), the “HLE, % @ concentration” value is 55% @ 10. In the case of `Cc1c(CNC(=O)OCc2ccccc2)ccc2nc(N[C@@H](Cc3ccccc3)C(=O)N(C)Cc3ccccc3)oc(=O)c12` [Example 9r, Phenylmethyl[[5-methyl-2-[[2-[methyl(phenylmethyl)amino]-2-oxo-1S-(phenylmethyl)ethyl]amino]-4-oxo-4H-3,1-benzoxazin-6-yl]methyl]carbamate], the EC50 in experiment [1] turned out to be 14 µM. Moreover, the “HLE, % @ concentration” value in experiment [2] (setting [3]) was 47% @ 1. Regarding `Cc1c(NC(=O)OC(C)(C)C)ccc2nc(N[C@H]3CCN(c4ccc(C#N)cc4)C3=O)oc(=O)c12` [Example 6y], in experiment [1], the EC50 came out at 67 µM. Also, the “HLE, % @ concentration” value in experiment [2] (setting [5]) was 25% @ 10. The matching figures for `CCOC(=O)NCc1ccc2nc(N[C@@H](Cc3ccc(OC)cc3)C(=O)N(C)Cc3ccccc3)oc(=O)c2c1C` [Example 9g, Ethyl[[2-[[1S-[(4-methoxyphenyl)methyl]-2-[methyl(phenylmethyl)amino]-2-oxoethyl]amino]-5-methyl-4-oxo-4H-3,1-benzoxazin-6-yl]methyl]carbamate]: 15 µM and 27% @ 10. As to `Cc1c(CNC(=O)OC(C)(C)C)ccc2nc(N[C@@H](Cc3ccccc3)C(=O)N(C)CCc3ccccc3)oc(=O)c12` [Example 7v, 1,1-Dimethylethyl[[5-methyl-2-[[2-[methyl(2-phenylethyl)amino]-2-oxo-1S-(phenylmethyl)ethyl]amino]-4-oxo-4H-3,1-benzoxazin-6-yl]methyl]carbamate], the EC50 in experiment [1] is 14 µM. For the same compound, in experiment [2] (setting [5]), the “HLE, % @ concentration” value worked out at 53% @ 10. The matching figures for `COC(=O)C1(Nc2nc3ccc(NC(=O)OC(C)(C)C)c(C)c3c(=O)o2)CC1` [Example 6x, N-[6-[[(1,1-Dimethylethoxy)carbonyl]amino]-5-methyl-4-oxo-4H-3,1-benzoxazin-2-yl]-1-cyclopropanecarboxylic acid, methyl ester]: more than 100 µM and 25% @ 10. For `COc1ccc(C[C@H](Nc2nc3ccc(CNC(=O)OC(C)(C)C)c(C)c3c(=O)o2)C(=O)N2CCCC2)cc1` [Example 7g, 1,1-Dimethylethyl[[2-[[1S-[(4-methoxyphenyl)methyl]-2-oxo-2-(1-pyrrolidinyl)ethyl]amino]-5-methyl-4-oxo-4H-3,1-benzoxazin-6-yl]methyl]carbamate], in that order: 20 µM and 39% @ 10. As to `CCN(Cc1ccccc1)C(=O)[C@H](Cc1ccc(OC)cc1)Nc1nc2ccc(CNC(=O)OCc3ccccc3)c(C)c2c(=O)o1` [Example 9p, Phenylmethyl[[2-[[2-[ethyl(phenylmethyl)amino]-1S-[(4-methoxyphenyl)methyl]-2-oxoethyl]amino]-5-methyl-4-oxo-3,1-benzoxazin-6-yl]methyl]carbamate], the EC50 in experiment [1] is more than 100 µM. In addition, in experiment [2] (@ 6 (concentration unit not given)), the “HLE, % @ concentration” value is given as 45% @ 6.

For `Cc1c(CNC(=O)OC2CCCC2)ccc2nc(N[C@@H](Cc3ccccc3)C(=O)N(C)Cc3ccccc3)oc(=O)c12` [Example 18f, Cyclopentyl[[5-methyl-2-[[2-[methyl(phenylmethyl)amino]-2-oxo-1S-(phenylmethyl)ethyl]amino]-4-oxo-4H-3,1-benzoxazin-6-yl]methyl]carbamate], in experiment [2] (setting [3]), the “HLE, % @ concentration” value was 59% @ 1.

Regarding `Cc1c(CNC(=O)NC(C)(C)C)ccc2nc(N[C@@H](Cc3ccccc3)C(=O)N(C)Cc3ccccc3)oc(=O)c12` [Example 12e, αS-[[6-[[[[(1,1-Dimethylethyl)amino]carbonyl]amino]methyl]-5-methyl-4-oxo-4H-3,1-benzoxazin-2-yl]amino]-N-methyl-N-(phenylmethyl)benzenepropanamide], the EC50 in experiment [1] was 14 µM.

As to `COC(=O)C(C)(C)Nc1nc2ccc(NC(=O)OC(C)(C)C)c(C)c2c(=O)o1` [Example 6w, N-[6-[[(1,1-Dimethylethoxy)carbonyl]amino]-5-methyl-4-oxo-4H-3,1-benzoxazin-2-yl]-2-aminoisobutyric acid, methyl ester], the EC50 in experiment [1] is more than 100 µM. As to `COC(=O)[C@H](Cc1ccccc1)Nc1nc2cccc(C)c2c(=O)o1` [Example 1k, N-(5-Methyl-4-oxo-4H-3,1-benzoxazin-2-yl)-L-phenylalanine, methyl ester], in experiment [1], the EC50 is more than 100 µM.
